Results published in patent US10206909B2, “3-(1H-pyrrolo[2,3-B]pyridin-2-yl)-1H-pyrazolo[4,3-B]pyridines and therapeutic uses thereof” (Samumed, LLC, priority 2015, dated 2019).

How the values were obtained:
[1] = system: primary human fibroblasts derived from IPF patients (LL29 cells); test: Inhibition of the fibrotic process: αSMA staining in TGF-β1 treated fibroblasts; type: cell-based; conditions: Fibroblast; for EC50: 96 h, LL29 cells, TGF-β1 20 ng/mL, 4 days, % αSMA positive cells
Summary of the method: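 IPF-derived LL29 fibroblasts in F12 with 1% FBS dosed with compound (11-point, 10 μM to 1.87 nM, 0.1% DMSO), then 20 ng/mL TGF-β1 after 1 h, and cultured 4 days at 37 °C. αSMA-positive cell fraction imaged after excluding SYTOX-positive cells, normalized to TGF-β1/DMSO wells; EC50 by non-linear regression, % inhibition at 10 μM if EC50 >10 μM.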

[2] = system: primary human mesenchymal stem cells (hMSCs); test: Chondrogenesis induction in mesenchymal stem cells (nodule count); type: cell-based; conditions: 144 h, 6 days; for EC50: concentration required to induce 50% levels of chondrogenesis vs TGF-β3, read-out: Conc (nM) of 50% TGF-β3 activity; for Emax: relative to TGF-β3 (10 ng/mL) positive control, read-out: Max. Activity as % TGF-β3 activity
Experimental: Representative compounds were screened using primary human mesenchymal stem cells (hMSCs) to determine their ability to induce chondrogenesis (process by which cartilage is developed).
Human Mesenchymal Stem Cell Culture: Primary human mesenchymal stem cells (hMSCs) were purchased from Lonza (Walkersville, Md.) and expanded in Mesenchymal Stem Cell Growth Media (Lonza). Cells between passage 3 and 6 were used for the experiments.
Compound Screening: Each compound was dissolved in DMSO as a 10 mM stock and used to prepare compound source plates. Serial dilution (1:3, 6-point dose-response curves from 2700 nM to 10 nM) and compound transfer was performed using the ECHO 550 (Labcyte, Sunnyvale, Calif.) into 96-well clear bottom assay plates (Greiner Bio-One) with appropriate DMSO backfill for a final DMSO concentration of 0.03%. hMSCs were plated at 20,000 cells/well in 250 μL/well Incomplete Chondrogenic Induction Medium (Lonza; DMEM, dexamethasone, ascorbate, insulin-transferrin-selenium [ITS supplement], gentamycin-amphotericin [GA-1000], sodium pyruvate, proline and L-glutamine). TGF-β3 (10 ng/mL) was used as a positive control for differentiation while negative control wells were treated with 75 nL DMSO for normalization and calculating EC50 values. Cells were incubated at 37° C. and 5% CO2 for 6 days. To image chondrogenic nodules, the cells were fixed using 4% formaldehyde (Electron Microscopy Sciences), and stained with 2 μg/mL Rhodamine B (Sigma-Aldrich) and 20 μM Nile Red (Sigma-Aldrich) [Johnson K., et. al, A Stem Cell-Based Approach to Cartilage Repair, Science, (2012). 336(6082), 717-721]. The nodules imaged (4 images per well at 4× magnification) by excitation at 531 nm and emission at 625 nm and quantified using the CellInsight CX5 (Thermo Scientific). Number of nodules in each well was normalized to the average of 3 DMSO treated wells on the same plate using Excel (Microsoft Inc.). The normalized averages (fold change over DMSO) of 3 replicate wells for each compound concentration were calculated. Due to solubility limitations of some of the compounds, curve fitting was incomplete leading to inaccurate EC50 determinations.
Using TGF-β3 as a positive control, the concentration of representative compounds required to induce 50% levels of chondrogenesis is reported. In addition, the maximum activity of each compound and the respective dose that each compound reached maximum chondrogenesis activity is reported.

| EC50 [2] [nM] | Compound | EC50 [1] [nM] | Emax [2] [%] | inhibition at 10 µM ([1]; at 10 μM, given where EC50 >10 μM, LL29, αSMA, read-out: percent inhibition at 10 μM) [%] |
| --- | --- | --- | --- | --- |
| 300 | CN1CCN(c2ccnc3[nH]c(-c4n[nH]c5ccc(-c6cn[nH]c6)nc45)cc23)CC1 [Compound 635, 3-(4-(4-Methylpiperazin-1-yl)-1H-pyrrolo[2,3-b]pyridin-2-yl)-5-(1H-pyrazol-4-yl)-1H-pyrazolo[4,3-b]pyridine] | 1500 | 60 |  |
| 300 | FC1(F)CCN(Cc2cncc(-c3ccc4[nH]nc(-c5cc6c(-c7cccnc7)ccnc6[nH]5)c4n3)c2)C1 [Compound 110, 5-(5-((3,3-Difluoropyrrolidin-1-yl)methyl)pyridin-3-yl)-3-(4-(pyridin-3-yl)-1H-pyrrolo[2,3-b]pyridin-2-yl)-1H-pyrazolo[4,3-b]pyridine] | 213 | 80 |  |
|  | c1cnc2[nH]c(-c3n[nH]c4ccc(-c5cncnc5)nc34)cc2c1 [Compound 279, 5-(Pyrimidin-5-yl)-3-(1H-pyrrolo[2,3-b]pyridin-2-yl)-1H-pyrazolo[4,3-b]pyridine] | > 10000 | 43 | 0 |
|  | CC(C)CC(=O)Nc1cncc(-c2ccc3[nH]nc(-c4cc5c(N6CCN(C)CC6)ccnc5[nH]4)c3n2)c1 [Compound 226, 3-Methyl-N-(5-(3-(4-(4-methylpiperazin-1-yl)-1H-pyrrolo[2,3-b]pyridin-2-yl)-1H-pyrazolo[4,3-b]pyridin-5-yl)pyridin-3-yl)butanamide] | 1760 | 49 |  |
